Experimental data from patent publication US7045550B2, “Polyamines and analogs for protecting cells during cancer chemotherapy and radiotherapy” (Wisconsin Alumni Research Foundation, priority 2001, dated 2006).

Columns and labels:
[1] = test system: rat pups challenged with cytarbine; assay: Cytarbine-induced alopecia model in rat pups; type: in vivo; details: treatment (1 mM), vehicle 4.0
Text: (§1) Alopecia was induced in rat pups by Cytoxan, cytarbine, doxorubicin and radiation, according to the methods described in the previous examples. Polyamines from three different structural families, obtained from two different sources, gave excellent results in animal alopecia models for Cytoxan, cytarbine and doxorubicin.

[2] = test system: rat pups challenged with doxorubicin; assay: Doxorubicin-induced alopecia model in rat pups; type: in vivo; details: vehicle 4.0
Text: as §1

[3] = test system: rat pups challenged with cytoxan; assay: Cytoxan (CTX)-induced alopecia model in rat pups, topical polyamine effector; type: in vivo, Sprague Dawley rat; details: 5 mM; versus naturally-occurring polyamines or simple polyamine analogs
Procedure: (§2) Induction of alopecia by cytoxan (CTX). Lactating Sprague Dawley mother rats with rat pups were purchased from Harlan Sprague Dawley (Indianapolis, Ind.). The mother rats were given food and water ad libitum. The rats pups were tested in the model of chemotherapy-induced alopecia described by Hussein A. M. et al., Science: 249, 1564 (1990). Cytoxan (CTX), a chemotherapeutic widely used in the treatment of cancer, was used to induce alopecia in the rats. A common side effect of cytoxan in patients is alopecia. Cytoxan and polyamine effector compounds were purchased from Sigma Chemicals Co. (St. Louis, Mo.). To produce CTX-induced alopecia, 7 to 10 day old rat pups were injected i.p. with 35 mg/kg of CTX prepared in phosphate-buffered saline. To produce reproducible CTX induced alopecia, we first tested several concentrations (35, 40, 45 ug/gm body weight) of CTX in phosphate-buffered saline (PBS), which was injected i.p. in 7–10 day old pups. Seven to ten days after CTX treatment the pups were examined to determine the degree of hair loss. The density of hair on the pups was then determined. 100% hair density represents that found on the untreated control pups while 0% represented pups with total hair loss. It was observed that 35 ug/gm of CTX was sufficient to induce 100% hair loss approximately 7 days after cytoxan challenge, and this concentration was used in subsequent experiments.
Different types of polyamine effector agents were tested in this model. The effectors were prepared in a delivery vehicle, consisting of from 60–100% ethanol in water, depending on the solubility of the compound. The compounds in ethanol/water solution from 50–150 μl in volume were topically administered to the backs of the pups once per day before and after CTX challenge. Using a micropipette, the formulation was applied to approximately 2 cm^2 section of skin to the backs of the rat pups. Specifically, the pups were treated once daily for the 4–5 days before CTX challenge, once on the day of CTX challenge and once daily for 5 days afterwards. Control groups consisted of pups receiving only delivery vehicle. Control groups treated with delivery vehicle were tested as part of every treatment study. Two or more animals were tested per group in both the control and test groups.
Approximately 7 to 10 days after CTX treatment, the pups were evaluated for alopecia. Hair loss was evaluated using a modified alopecia-scoring index described by Chen G. et al., Int. J. Cancer: 75, 303 (1998). A score of 0=no hair loss; a score of 1=10–30% hair loss; a score of 2=40–60% hair loss; a score of 3=70–90% hair loss; and a score of 4=100% hair loss.
as §2, with “It was observed that 35 ug/gm of CTX was sufficient to induce 100% hair loss approximately 7 days after cytoxan challenge, and this concentration was used in subsequent experiments.” left out

## CCNCCCCNCCCCNCCCCNCCCCNC/C=C/CNCCCCNCCCCNCCCCNCCCCNCC [SL-11144]
[1]
  Avg Alopecia Scores: 3.0
[2]
  Avg Alopecia Score: 0.0
[3]
  activity in both the alopecia and dermatitis models: overall greater activity
